Laboratory results taken from US8716326B2, “Isoindolinone derivatives, preparation method thereof and a pharmaceutical composition comprising same” (Korea Research Institute of Chemical Technology, priority 2009, dated 2014).

Test system: Runx2
Assay: Runx2 activity, 6xOSE2-Luc luciferase reporter in transfected C2C12 cells
Format: cell-based, Mouse
Conditions: 24 hrs; for fold induction at 2.5 µM / fold induction at 5 µM / fold induction at 10 µM / fold induction at 20 µM: Mus musculus, read-out: luciferase activity relative to control set as 1
Experimental: Mouse premyoblast cell (C2C12 cell) was transfected using receptor vector 6xOSE2-Luc in order to investigate the activity of the amide compound of the present invention on Runx2.
Specifically, the receptor vector 6xOSE2-Luc was prepared by inserting an artificial promoter linked by six tandem copies of the OSE2 (osteoblast specific element-2) into vector pGL3 (Promega; Madison, Wis., U.S.A.), and then, cloned into the C2C12 cell to be transfected (Kim et al., Journal of Cellular Biochemistry, 91: 1239-1247, 2004). The OSE2 is the binding site of Runx2 in the promoter of osteocalcin which is a bone marker.
C2C12 cells (5,000 cells/well) were plated onto 96-well plates using 10% FBS (fetal bovine serum; Hyclone)-containing DMEM (Dulbecco's Modified Eagle's Medium), the medium was replaced with 5% FBS-containing DMEM after 24 hrs, and treated with each of the amide compounds obtained in Examples 1 to 94 at various concentrations of 2.5 μM, 5.0 μM, 10 μM, and 20 μM. As a control, dimethyl sulfoxide (DMSO) vehicle was applied to the cell in an amount same as that of the amide compound. After 24 hrs, the luciferase activity in the cell lysate was measured by using Dual-Luciferase Reporter Assay System (Promega). The luciferase activity of the amide compound of the present invention was calculated as a value relative to that observed for the control which was set as 1.

| SMILES | fold induction at 2.5 µM (2.5 μM) | fold induction at 5 µM (5.0 μM) | fold induction at 10 µM (10 μM) | fold induction at 20 µM (20 μM) | luciferase activity relative to control set as 1 (2.5 μM) | luciferase activity relative to control set as 1 (5.0 μM) | luciferase activity relative to control set as 1 (10 μM) | luciferase activity relative to control set as 1 (20 μM) |
| --- | --- | --- | --- | --- | --- | --- | --- | --- |
| COc1ccc(-c2cccc(C(=O)NCCCCCC(=O)Nc3ccccc3N)c2C)c(OC)c1 [Example 82, N-(5-(2-aminophenylcarbamoyl)pentyl)-2-methyl-3-(2,4-dimethoxyphenyl)-benzamide] | 1.5 | 2.5 | 6 | 10.9 | – | – | – | – |
| Cc1cc(C(=O)NCCCCCC(=O)Nc2ccccc2N)ccc1-c1ccncc1 [Example 89, N-(5-(2-aminophenylcarbamoyl)pentyl)-3-methyl-4-(4-pyridinyl)-benzamide] | 9.6 | 17.9 | 23.7 | 25.3 | – | – | – | – |
| Nc1ccccc1NC(=O)c1ccc(CN2Cc3cc(-c4ccccc4)ccc3C2=O)cc1 [Example 57, N-(2-aminophenyl)-4-((1-oxo-5-phenylisoindolin-2-yl)methyl)benzamide] | 7.3 | 8.9 | 10.9 | 10.7 | – | – | – | – |
| Cc1cc(C(=O)NCCCCCC(=O)Nc2ccccc2N)ccc1-c1cncnc1 [Example 90, N-(5-(2-aminophenylcarbamoyl)pentyl)-3-methyl-4-(5-pyrimidinyl)-benzamide] | 1.7 | 3.7 | 9.5 | 22.1 | – | – | – | – |
| COc1ccc(-c2c3c(cc(OC)c2OC)C(=O)N(Cc2ccc(C(=O)Nc4ccccc4N)cc2)C3)cc1 [Example 5, N-(2-aminophenyl)-4-((5,6-dimethoxy-4-(4-methoxyphenyl)-1-oxoisoindolin-2-yl)methyl)benzamide] | 30.4 | 25.3 | 17.7 | 15.4 | – | – | – | – |
| COc1ccc(-c2cccc3c2CN(Cc2ccc(C(=O)Nc4ccccc4N)cc2)C3=O)cc1 [Example 15, N-(2-aminophenyl)-4-((4-(4-methoxyphenyl)-1-oxoisoindolin-2-yl)methyl)benzamide] | 7.4 | 10.4 | 12 | 14 | – | – | – | – |
| Nc1ccccc1NC(=O)c1ccc(CN2Cc3c(cccc3-c3ccc4ccccc4c3)C2=O)cc1 [Example 21, N-(2-aminophenyl)-4-((4-(naphthalen-2-yl)-1-oxoisoindolin-2-yl)methyl)benzamide] | 6.4 | 8.7 | 11.6 | 11.7 | – | – | – | – |
| Nc1ccccc1NC(=O)CCCCCN1Cc2c(Br)cccc2C1=O [Example 36, N-(2-aminophenyl)-6-(4-bromo-1-oxoisoindolin-2-yl)hexanamide] | 2.1 | 3 | 8 | 13 | – | – | – | – |
| Nc1ccccc1NC(=O)c1ccc(CN2Cc3c(cccc3-c3cccnc3)C2=O)cc1 [Example 14, N-(2-aminophenyl)-4-((1-oxo-4-(pyridin-3-yl)isoindolin-2-yl)methyl)benzamide] | 12 | 15.7 | 15.4 | 16.9 | – | – | – | – |
| Nc1ccccc1NC(=O)c1ccc(CN2Cc3cc(-c4ccc(C(F)(F)F)cc4)ccc3C2=O)cc1 [Example 59, N-(2-aminophenyl)-4-((5-(4-(trifluoromethyl)phenyl)-1-oxoisoindolin-2-yl)methyl)benzamide] | 3.3 | 4.5 | 4.1 | 3.8 | – | – | – | – |
| COc1cc(C(=O)NCc2ccc(C(=O)Nc3ccccc3N)cc2)c(C)c(-c2cccnc2)c1OC [Example 76, N-(2-aminophenyl)-4-((2-methyl-3-(3-pyridinyl)-4,5-dimethoxy-benzamido)methyl)benzamide] | 4.5 | 8.5 | 20.8 | 32.9 | – | – | – | – |
| COc1cc2c(c(-c3cc(C)cc(C)c3)c1OC)CN(Cc1ccc(C(=O)Nc3ccccc3N)cc1)C2=O [Example 3, N-(2-aminophenyl)-4-((5,6-dimethoxy-4-(3,5-dimethylphenyl)-1-oxoisoindolon-2-yl)methyl)benzamide] | – | – | – | – | 25.2 fold | 25.7 fold | 22.7 fold | 18.7 fold |
| Nc1ccccc1NC(=O)c1ccc(CN2Cc3c(cccc3-c3cc(F)cc(F)c3)C2=O)cc1 [Example 17, N-(2-aminophenyl)-4-((4-(3,5-difluorophenyl)-1-oxoisoindolin-2-yl)methyl)benzamide] | 11.2 | 14.7 | 16.3 | 15.8 | – | – | – | – |
| Cc1cc(C)cc(-c2cccc3c2CN(CCCCCC(=O)NO)C3=O)c1 [Example 41, N-hydroxy-6-(4-(3,5-dimethylphenyl)-1-oxoisoindolin-2-yl)hexanamide] | 2.5 | 4.6 | 12.4 | 28 | – | – | – | – |
| COc1cc2c(c(-c3ccccc3)c1OC)CN(Cc1ccc(C(=O)Nc3ccccc3N)cc1)C2=O [Example 2, N-(2-aminophenyl)-4-((5,6-dimethoxy-1-oxo-4-phenylisoindolin-2-yl)methyl)benzamide] | 27.3 | 24.8 | 19.7 | 21.7 | – | – | – | – |
| COc1ccc(-c2ccc3c(c2)CN(Cc2ccc(C(=O)Nc4ccccc4N)cc2)C3=O)cc1 [Example 63] | – | – | – | – | 8.3 fold | 10.3 fold | 13.1 fold | 14.2 fold |
| Nc1ccc(-c2cccs2)cc1NC(=O)CCCCCN1Cc2c(cccc2-c2cncnc2)C1=O [Example 47, N-(2-amino-5-(thiophen-2-yl)phenyl)-6-(1-oxo-4-(pyrimidin-5-yl)isoindolin-2-yl)hexanamide] | 1.1 | 1.2 | 1.3 | 1.6 | – | – | – | – |
| Nc1ccccc1NC(=O)c1ccc(CN2Cc3cc(-c4ccc5c(c4)OCO5)ccc3C2=O)cc1 [Example 66, N-(2-aminophenyl)-4-((5-(benzo[d][1,3]dioxol-6-yl)-1-oxoisoindolin-2-yl)methyl)benzamide] | 14.2 | 9.4 | 7.2 | 7.2 | – | – | – | – |
| O=C(CCCCCN1Cc2c(cccc2-c2cccnc2)C1=O)NO [Example 43, N-hydroxy-6-(1-oxo-4-(pyridin-3-yl)isoindolin-2-yl)hexanamide] | 1.1 | 1.3 | 1.8 | 3.2 | – | – | – | – |
| COc1cc(C(=O)NCc2ccc(C(=O)Nc3ccccc3N)cc2)c(C)c(-c2cncnc2)c1OC [Example 75, N-(2-aminophenyl)-4-((2-methyl-4,5-dimethoxy-3-(5-pyrimidinyl)-benzamido)methyl)benzamide] | 2.5 | 4.7 | 12.4 | 27.8 | – | – | – | – |
| COc1ccc(-c2cccc(C(=O)NCCCCCC(=O)NO)c2C)c(OC)c1 [Example 93, N-(5-(hydroxycarbamoyl)pentyl)-2-methyl-3-(2,4-dimethoxyphenyl)-benzamide] | 1.3 | 1.9 | 4.8 | 11.2 | – | – | – | – |
| Cc1c(C(=O)NCCCCCC(=O)Nc2ccccc2N)cccc1-c1cccnc1 [Example 83, N-(5-(2-aminophenylcarbamoyl)pentyl)-2-methyl-3-(3-pyridinyl)-benzamide] | 1.3 | 2.1 | 5.6 | 15.7 | – | – | – | – |
| Nc1ccccc1NC(=O)c1ccc(CN2Cc3c(cccc3-c3ccc(-c4ccccc4)cc3)C2=O)cc1 [Example 25, N-(2-aminophenyl)-4-[1-oxo-4-(4-phenylphenyl)-2,3-dihydro-1H-isoindol-2-yl]methylbenzamide] | 6.8 | 11.3 | 17.9 | 19.7 | – | – | – | – |
| COc1cc(C(=O)NCc2ccc(C(=O)Nc3ccccc3N)cc2)c(C)c(Br)c1OC [Example 73, N-(2-aminophenyl)-4-((3-bromo-4,5-dimethoxy-2-methylbenzamido)methyl)benzamide] | 24.2 | 32.3 | 30.8 | 25.9 | – | – | – | – |
| O=C(CCCCCN1Cc2cc(-c3ccccc3)ccc2C1=O)NO [Example 49, N-hydroxy-6-(1-oxo-5-phenylisoindolin-2-yl)hexanamide] | 4.8 | 10.6 | 28.1 | 26.5 | – | – | – | – |
